Data reported in article PMC10041525, “New Dual Inhibitors of Bacterial Topoisomerases with Broad-Spectrum Antibacterial Activity and In Vivo Efficacy against Vancomycin-Intermediate Staphylococcus aureus” (Journal of Medicinal Chemistry, 2023).
Values after ≈ are worked out from the molar mass of the structure shown. Read-outs that look alike come from different tables or passages of the source.

How the values were obtained:
[1] = tested on: 100 A. baumannii strains (50 MDR, 50 non-MDR); test: MIC broth microdilution at IHMA Europe, panel of 100 strains; assay type: cell-based; conditions: for MIC / MIC50 / MIC90: Acinetobacter baumannii; for MIC50: read-out: MIC 50; for MIC90: read-out: MIC 90
[2] = tested on: A. baumannii ATCC 17978; test: IHMA QC MIC; assay type: cell-based
Procedure: (§1) The panel of Hungarian clinical isolates and controls measured following the same method as detailed above, and albeit measurements were carried out in 384-well microtiter plates (Corning Inc.).

[3] = tested on: E. coli ATCC 35218; test: IHMA QC MIC; assay type: cell-based; conditions: Escherichia coli, ATCC35218, read-out: MIC (QC, repeated tests)
Procedure: as §1

[4] = tested on: H. influenzae ATCC 49766; test: IHMA QC MIC; assay type: cell-based
From the text: (§2) Supplement jm2c01905_si_004.xlsx, sheet "QC" | column: MIC [µg/mL]

[5] = tested on: S. pneumoniae ATCC 49619; test: IHMA QC MIC; assay type: cell-based
From the text: as §2

[6] = tested on: N. gonorrhoeae ATCC 49226; test: IHMA QC MIC; assay type: cell-based; conditions: Neisseria gonorrhoeae, ATCC49226
From the text: as §2

[7] = tested on: H. influenzae ATCC 49247; test: IHMA QC MIC; assay type: cell-based
From the text: as §2

[8] = tested on: P. aeruginosa ATCC 27853; test: IHMA QC MIC; assay type: cell-based; conditions: for MIC: Pseudomonas aeruginosa
[9] = in vitro; assay type: in vitro ADME, mouse; conditions: male, CD-1, mouse

Structure (SMILES): Cc1[nH]c(C(=O)Nc2nc3c(N4[C@@H]5CC[C@H]4COC5)cc(C(=O)O)cc3s2)c(Cl)c1Cl [7h, 4-((1R,5S)-3-Oxa-8-azabicyclo[3.2.1]octan-8-yl)-2-(3,4-dichloro-5-methyl-1H-pyrrole-2-carboxamido)benzo[d]thiazole-6-carboxylic Acid]
- MIC ([1]; A. baumannii IHMA 2180134, Malaysia 2020, Non-MDR, read-out: MIC): 2 µg/mL (≈ 4.15 µM)
- MIC ([1]; A. baumannii IHMA 2180142, Malaysia 2020, MDR, read-out: MIC): 2 µg/mL (≈ 4.15 µM)
- MIC ([1]; A. baumannii IHMA 2181370, Morocco 2020, MDR, read-out: MIC): 2 µg/mL (≈ 4.15 µM)
- MIC ([1]; A. baumannii IHMA 2183729, Argentina 2020, MDR, read-out: MIC): 4 µg/mL (≈ 8.31 µM)
- MIC ([1]; A. baumannii IHMA 2183849, Argentina 2020, Non-MDR, read-out: MIC): 2 µg/mL (≈ 4.15 µM)
- MIC ([1]; A. baumannii IHMA 2184382, Japan 2020, Non-MDR, read-out: MIC): 2 µg/mL (≈ 4.15 µM)
- MIC ([1]; A. baumannii IHMA 2193375, Venezuela 2020, MDR, read-out: MIC): 2 µg/mL (≈ 4.15 µM)
- MIC ([1]; A. baumannii IHMA 2193485, Venezuela 2020, Non-MDR, read-out: MIC): 1 µg/mL (≈ 2.08 µM)
- MIC ([1]; A. baumannii IHMA 2193607, Venezuela 2020, MDR, read-out: MIC): 2 µg/mL (≈ 4.15 µM)
- MIC ([1]; A. baumannii IHMA 2195460, Italy 2020, MDR, read-out: MIC): 2 µg/mL (≈ 4.15 µM)
- MIC ([1]; A. baumannii IHMA 2196914, South Africa 2020, MDR, read-out: MIC): 2 µg/mL (≈ 4.15 µM)
- MIC ([1]; A. baumannii IHMA 2196959, South Africa 2020, MDR, read-out: MIC): 2 µg/mL (≈ 4.15 µM)
- MIC ([1]; A. baumannii IHMA 2203763, Spain 2020, MDR, read-out: MIC): 4 µg/mL (≈ 8.31 µM)
- MIC ([1]; A. baumannii IHMA 2205144, Korea, South 2020, MDR, read-out: MIC): 2 µg/mL (≈ 4.15 µM)
- MIC ([1]; A. baumannii IHMA 2206459, Taiwan 2020, MDR, read-out: MIC): 2 µg/mL (≈ 4.15 µM)
- MIC ([1]; A. baumannii IHMA 2206507, Taiwan 2020, Non-MDR, read-out: MIC): 1 µg/mL (≈ 2.08 µM)
- MIC ([1]; A. baumannii IHMA 2212575, Hungary 2020, Non-MDR, read-out: MIC): 4 µg/mL (≈ 8.31 µM)
- MIC ([1]; A. baumannii IHMA 2215307, Hong Kong 2020, Non-MDR, read-out: MIC): 2 µg/mL (≈ 4.15 µM)
- MIC ([1]; A. baumannii IHMA 2216586, Taiwan 2020, MDR, read-out: MIC): 2 µg/mL (≈ 4.15 µM)
- MIC ([1]; A. baumannii IHMA 2223200, Colombia 2020, Non-MDR, read-out: MIC): 2 µg/mL (≈ 4.15 µM)
- MIC ([1]; A. baumannii IHMA 2224017, Panama 2020, MDR, read-out: MIC): 4 µg/mL (≈ 8.31 µM)
- MIC ([1]; A. baumannii IHMA 2224303, Panama 2020, Non-MDR, read-out: MIC): 4 µg/mL (≈ 8.31 µM)
- MIC ([1]; A. baumannii IHMA 2231797, Greece 2020, MDR, read-out: MIC): 2 µg/mL (≈ 4.15 µM)
- MIC ([1]; A. baumannii IHMA 2233099, Guatemala 2020, MDR, read-out: MIC): 4 µg/mL (≈ 8.31 µM)
- MIC ([1]; A. baumannii IHMA 2233430, Kazakhstan 2020, MDR, read-out: MIC): 2 µg/mL (≈ 4.15 µM)
- MIC ([1]; A. baumannii IHMA 2233548, Kazakhstan 2020, Non-MDR, read-out: MIC): 4 µg/mL (≈ 8.31 µM)
- MIC ([1]; A. baumannii IHMA 2238964, Thailand 2020, MDR, read-out: MIC): 4 µg/mL (≈ 8.31 µM)
- MIC ([1]; A. baumannii IHMA 2239052, Thailand 2020, Non-MDR, read-out: MIC): 4 µg/mL (≈ 8.31 µM)
- MIC ([1]; A. baumannii IHMA 2261047, Belgium 2020, MDR, read-out: MIC): 4 µg/mL (≈ 8.31 µM)
- MIC ([1]; A. baumannii IHMA 2261633, Canada 2020, Non-MDR, read-out: MIC): 4 µg/mL (≈ 8.31 µM)
- MIC ([1]; A. baumannii IHMA 2274234, South Africa 2020, MDR, read-out: MIC): 2 µg/mL (≈ 4.15 µM)
- MIC ([1]; A. baumannii IHMA 2274364, South Africa 2020, MDR, read-out: MIC): 2 µg/mL (≈ 4.15 µM)
- MIC ([1]; A. baumannii IHMA 2275237, Chile 2020, Non-MDR, read-out: MIC): 2 µg/mL (≈ 4.15 µM)
- MIC ([1]; A. baumannii IHMA 2275751, Jordan 2020, MDR, read-out: MIC): 2 µg/mL (≈ 4.15 µM)
- MIC ([1]; A. baumannii IHMA 2316205, United States 2020, MDR, read-out: MIC): 2 µg/mL (≈ 4.15 µM)
- MIC ([1]; MDR n = 50, read-out: MAX (maximum MIC; all strains inhibited)): 4 µg/mL (≈ 8.31 µM)
- MIC50 ([1]; MDR n = 50): 2 µg/mL (≈ 4.15 µM)
- MIC90 ([1]; MDR n = 50): 4 µg/mL (≈ 8.31 µM)
- MIC ([1]; MDR n = 50, read-out: MIN (minimum MIC)): 1 µg/mL (≈ 2.08 µM)
- MIC ([1]; all isolates n = 100, read-out: MAX (maximum MIC; all strains inhibited)): 8 µg/mL (≈ 16.6 µM)
- MIC50 ([1]; all isolates n = 100): 2 µg/mL (≈ 4.15 µM)
- MIC90 ([1]; all isolates n = 100): 4 µg/mL (≈ 8.31 µM)
- MIC ([1]; all isolates n = 100, read-out: MIN (minimum MIC)): 1 µg/mL (≈ 2.08 µM)
- MIC ([1]; non-MDR n = 50, read-out: MAX (maximum MIC)): 8 µg/mL (≈ 16.6 µM)
- MIC50 ([1]; non-MDR n = 50): 2 µg/mL (≈ 4.15 µM)
- MIC90 ([1]; non-MDR n = 50): 4 µg/mL (≈ 8.31 µM)
- MIC ([1]; non-MDR n = 50, read-out: MIN (minimum MIC)): 1 µg/mL (≈ 2.08 µM)
- MAX (maximum MIC; all strains inhibited) ([1]; MDR n = 50): 4 µg/mL
- MAX (maximum MIC; all strains inhibited) ([1]; all isolates n = 100): 8 µg/mL
- MIC (QC, repeated tests) [2]: 1 µg/mL (≈ 2.08 µM)
- MIC [3]: 2 µg/mL (≈ 4.15 µM)
- MIC ([4]; Haemophilus influenzae, ATCC49766): 0.25 µg/mL (≈ 0.519 µM)
- MIC ([4]; QC strain H. influenzae ATCC 49766, test date 2021-11-26): 0.25 µg/mL (≈ 0.519 µM)
- MIC ([5]; QC strain S. pneumoniae ATCC 49619, test date 2021-11-26): 0.25 µg/mL (≈ 0.519 µM)
- MIC ([5]; Streptococcus pneumoniae, ATCC49619): 0.25 µg/mL (≈ 0.519 µM)
- MIC [6]: ≤ 0.03 µg/mL
- MIC ([7]; Haemophilus influenzae, ATCC49247, QC strain H. influenzae ATCC 49247, test date 2021-11-11): 0.25 µg/mL (≈ 0.519 µM)
- MIC ([7]; Haemophilus influenzae, ATCC49247, QC strain H. influenzae ATCC 49247, test date 2021-11-26): 0.06 µg/mL (≈ 0.125 µM)
- MIC ([7]; QC strain H. influenzae ATCC 49247, test date 2021-11-11): 0.5 µg/mL (≈ 1.04 µM)
- MIC (QC, repeated tests) [8]: 4 µg/mL (≈ 8.31 µM)
- MIC ([8]; ATCC27853, QC strain P. aeruginosa ATCC 27853, test date 2021-11-11): 16 µg/mL (≈ 33.2 µM)
- MIC ([8]; ATCC27853, QC strain P. aeruginosa ATCC 27853, test date 2021-11-26): 8 µg/mL (≈ 16.6 µM)
- MIC ([8]; ATCC27853, read-out: MIC (QC, repeated tests)): 8 µg/mL (≈ 16.6 µM)
- fraction unbound at 4 h, 5 μM ([9]; plasma, fu, fraction unbound): 0.009
- recovery at 4 h, 5 μM ([9]; plasma protein binding assay): 89%
